Test results: PubChem BioAssay AID1963835 (Molecular Pharmacology Branch, DTP, NCI, 2024)
pIC50: −log10 of the molar value.

System: 699152-130-R-J1-PDC complex spheroid viability
Assay: Anticancer human tumor 699152-130-R-J1-PDC patient-derived pancreatic carcinoma cell line growth inhibition [POLQ]
Conditions: for pIC50: curve of first compound; for viability, T/C: stronger effect = lower value
Method: Multicellular complex tumor spheroid response to Polymerase (POL) inhibitors (novobiocin, ART-558, RP6685) in combination with a variety of drugs and investigational agents in selected tumor cell lines
The POL inhibitors (novobiocin, ART-558, and RP6685) were evaluated both individually and in combination with standard of care and investigational anticancer small molecules within a complex spheroid model of solid tumors. . Complex spheroids include a stromal component modeled by human endothelial cells (HUVEC) and fibroblasts modeled by human mesenchymal stem cells (MSCs). The concentration ranges selected for each drug and investigational agent were based upon clinically achievable concentrations if the clinical Cmax of the agent was known.
Compounds. The drugs and investigational agents: novobiocin (NSC847541), ART-558 (NSC835418), RP-6685 (NSC848927), peposertib (NSC802822), ceralasertib (NSC780249), elimusertib (NSC800525), camonsertib (NSC841442), AZD-1390 (NSC803789), olaparib (NSC753686), talazoparib (NSC767125), rucaparib (NSC756644), sotorasib (NSC818433), MRTX-1133 (NSC836407), SN-38 (NSC673596), topotecan (NSC609699), epotoside (NSC141540), doxorubicin (NSC123127), gemcitabine (NSC613327), 5-fluorouracil (NSC19893), paclitaxel (NSC125973), vemurafenib (NSC761431), MSA-2 (NSC828583), SN-011 (NSC837082), adavosertib (NSC754352), prexasertib (NSC758257), carboplatin (NSC241240) and oxaliplatin (NSC266046), were obtained from the National Cancer Institute (NCI) Developmental Therapeutics Program Chemical Repository (21). The FDA-approved anticancer drug set is available from the Developmental Therapeutics Program at https://dtp.cancer.gov/organization/dscb/obtaining/. […] The stock solutions were prepared in dimethyl sulfoxide (DMSO, Sigma-Aldrich, St. Louis, MO, cat. D2650), except for the platinum compounds which were prepared in saline (Quality Biological, Gaithersburg, MD, cat. 114-055-101), at 800-fold the tested concentration and stored at -70 degrees C prior to their use. All drugs and investigational agents were tested over a range starting from a high concentration at or near the clinical Cmax and decreasing in half-log increments. If the clinical Cmax for an agent had not been determined, the highest concentration tested was 10 microM, except for SN-38, which was tested at a high concentration of 1 microM.
Cell Culture. All cells were maintained in an incubator at 37 degrees C and 5% CO2 with 95% humidity. The PDC lines were cultured according to standard operating procedures established by the NCI PDMR (https://pdmr.cancer.gov). Table 3 of the manuscript, lists the cell lines along with the number of the three cell types plated to form the mct-spheroids and media for tumor cell growth. After thawing, all PDC lines, except 997537-175-T-J1-PDC and 415267-285-R-J2-PDC, were cultured in Matrigel-coated flasks prepared with a working solution of 1X Ham's F-12 nutrient mix, without supplementation (Thermo Fisher Scientific, cat. 11765054), 100 U/mL penicillin-streptomycin (Thermo Fisher Scientific, cat. 15140122), and 2.5% Matrigel (Corning Inc., Corning, NY, cat. 354248) for the first three passages. The two PDC lines 997537-175-T-J1-PDC and 415267-285-R-J2-PDC were cultured on uncoated flasks. The 857933-349-R-J2-PDC line was cultured in 6C/Colon 1B media containing advanced DMEM/F-12 (Thermo Fisher Scientific, cat. 12634028), 10 mM HEPES (Thermo Fisher Scientific, cat. 15630080), 1X GlutaMAX supplement (Thermo Fisher Scientific, cat. 35050061), 0.1 mg/mL primocin (InvivoGen, San Diego, CA, cat. ant-pm-2), 10% defined fetal bovine serum, heat inactivated (HyClone Laboratories Inc., Logan, UT, cat. SH30070.03HI), 50% L-WRN conditioned media (ATCC, cat. CRL-3276), 1.25 mM N-Acetyl-L-cysteine (Sigma-Aldrich, cat. A9165), 10 mM nicotinamide (Sigma-Aldrich, cat. N0636), 1X B-27 supplement (Thermo Fisher Scientific, cat. 17504044), 1X N-2 supplement (Thermo Fisher Scientific, cat. […]
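Also: spheroids exposed to agents for 7 days before viability reading.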
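For viability, T/C in this document: percent of DMSO vehicle control viability so 100% = vehicle and 0% = no viable signal.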

COc1ccc([C@@H](O)c2cc(-c3ncnc4cc(N5CCOCC5)ccc34)c(F)cc2Cl)nn1 + Cc1cccc(N(C)C(=O)C2C(O)CCN2c2nc(C)cc(C(F)(F)F)c2C#N)c1 was tested, and the pIC50 (second compound 0.0316 µM) was 5.39, the pIC50 (second compound 0.1 µM) was 5.44 and the pIC50 (second compound 0.316 µM) was 5.38. The pIC50 (second compound 1 µM) was 5.45, the pIC50 (second compound 3.16 µM) was 5.47 and the pIC50 (second compound 10 µM) was 5.35. It also gave a viability, T/C (second compound 0.0316 µM, first compound 0.0316 µM) of 96.5%, a viability, T/C (second compound 0.0316 µM, first compound 0.1 µM) of 94.2% and a viability, T/C (second compound 0.0316 µM, first compound 0.316 µM) of 98.3%. For the same compound, the viability, T/C (second compound 0.0316 µM, first compound 1 µM) was 78.9%, the viability, T/C (second compound 0.0316 µM, first compound 3.16 µM) was 58.8% and the viability, T/C (second compound 0.0316 µM, first compound 10 µM) was 22.6%. For the same compound, the viability, T/C (second compound 0.1 µM, first compound 0.0316 µM) was 101%, the viability, T/C (second compound 0.1 µM, first compound 0.1 µM) was 106% and the viability, T/C (second compound 0.1 µM, first compound 0.316 µM) was 87.7%. For the same compound, the viability, T/C (second compound 0.1 µM, first compound 1 µM) was 85.3%, the viability, T/C (second compound 0.1 µM, first compound 3.16 µM) was 52.5% and the viability, T/C (second compound 0.1 µM, first compound 10 µM) was 22.9%. For the same compound, the viability, T/C (second compound 0.316 µM, first compound 0.0316 µM) was 106%, the viability, T/C (second compound 0.316 µM, first compound 0.1 µM) was 88.9% and the viability, T/C (second compound 0.316 µM, first compound 0.316 µM) was 90.4%. For the same compound, the viability, T/C (second compound 0.316 µM, first compound 1 µM) was 84%, the viability, T/C (second compound 0.316 µM, first compound 3.16 µM) was 56.9% and the viability, T/C (second compound 0.316 µM, first compound 10 µM) was 22.6%. For the same compound, the viability, T/C (second compound 1 µM, first compound 0.0316 µM) was 109%, the viability, T/C (second compound 1 µM, first compound 0.1 µM) was 95.8% and the viability, T/C (second compound 1 µM, first compound 0.316 µM) was 90.1%. The viability, T/C (second compound 1 µM, first compound 1 µM) was 78.9%, the viability, T/C (second compound 1 µM, first compound 3.16 µM) was 51.4% and the viability, T/C (second compound 1 µM, first compound 10 µM) was 21.2%. For the same compound, the viability, T/C (second compound 3.16 µM, first compound 0.0316 µM) was 111%, the viability, T/C (second compound 3.16 µM, first compound 0.1 µM) was 94.7% and the viability, T/C (second compound 3.16 µM, first compound 0.316 µM) was 83.6%. For the same compound, the viability, T/C (second compound 3.16 µM, first compound 1 µM) was 75.2%, the viability, T/C (second compound 3.16 µM, first compound 3.16 µM) was 51% and the viability, T/C (second compound 3.16 µM, first compound 10 µM) was 27.4%. For the same compound, the viability, T/C (second compound 10 µM, first compound 0.0316 µM) was 101%, the viability, T/C (second compound 10 µM, first compound 0.1 µM) was 100% and the viability, T/C (second compound 10 µM, first compound 0.316 µM) was 88.8%. It also gave a viability, T/C (second compound 10 µM, first compound 1 µM) of 74.1%, a viability, T/C (second compound 10 µM, first compound 3.16 µM) of 60.2% and a viability, T/C (second compound 10 µM, first compound 10 µM) of 30.9%.
